According to BigSolDB 2.1:

O=C1/C(=C/c2ccc(O)cc2)CCC/C1=C\c1ccc(O)cc1
solubility (mole fraction)
Settings | in 1,4-dioxane | in DMF | in DMSO | in THF | in acetic acid | in acetone | in ethyl acetate | in methanol | in n-butanol | in n-propanol
299.15 K | 0.0074 | 0.0332 | 0.0112 | 0.023 | 0.0032 | 0.0049 | 0.0021 | 0.0034 | 0.0134 | 0.0013
303.15 K | 0.0085 | 0.0388 | 0.0132 | 0.0256 | 0.0034 | 0.0061 | 0.0031 | 0.0041 | 0.0142 | 0.0023
308.15 K | 0.0101 | 0.0458 | 0.0156 | 0.0281 | 0.0036 | 0.0073 | 0.004 | 0.0051 | 0.0152 | 0.0036
313.15 K | 0.0115 | 0.0556 | 0.0251 | 0.0319 | 0.0039 | 0.0093 | 0.0053 | 0.0066 | 0.0164 | 0.0056
318.15 K | 0.0135 | 0.0658 | 0.0371 | 0.0387 | 0.0044 | 0.0114 | 0.0069 | 0.0086 | 0.0178 | 0.0086
323.15 K | 0.0153 | 0.0816 | 0.0528 | 0.0461 | 0.0052 | 0.0128 | 0.0102 | 0.0102 | 0.021 | 0.0123
328.15 K | 0.0172 | 0.106 | 0.0742 | 0.0527 | 0.0063 | 0.0147 | 0.0136 | 0.0129 | 0.0235 | 0.0169
